Experimental findings from ChEMBL document CHEMBL1201862, “PubChem BioAssay data set” (2004) are described below.

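Five concentrations, 48 hours, 96-well plates. GI50 marks 50% less growth.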 The source made the active and inactive calls. No stated cut-off is given here; in the data, active = GI50 up to about 1.1 µM and inactive = higher.

Test systems include NCI-H460; OVCAR-3; HL-60; SK-MEL-2; CAKI-1; HCT-15; SNB-19; HOP-62; RPMI-8226; HCC 2998; SN12C; A498; IGROV-1; EKVX; SNB-75; SR.
Experiment in all cases: inhibition of tumour cell growth, NCI panel, 48 h

Turning to `CCCCCN(CCCCC)C(=O)[C@H](CCC(=O)O)NC(=O)c1cc2ccccc2[nH]1`, the GI50 was 39.3 µM (inactive) with NCI-H460; 42.7 µM (inactive) with OVCAR-3; 29.3 µM (inactive) in the assay on HL-60; 41.9 µM (inactive) with SK-MEL-2; 51.9 µM (inactive) in the assay with CAKI-1; 54.8 µM in the assay on HCT-15. Further, the GI50 in the assay with SNB-19 was 35.6 µM (inactive); in the assay on HOP-62, 56 µM (inactive); with RPMI-8226, 21.8 µM (inactive); in the assay on HCC 2998 it was 33.4 µM (inactive); in the assay with SN12C, 48.5 µM (inactive); in the assay with A498, > 100 µM (inactive). Moreover, the results for the GI50 in the assay with IGROV-1, in the assay with EKVX and in the assay on SNB-75 were 45.4 µM (inactive), > 100 µM (inactive) and 32.7 µM (inactive), respectively.

For the compound `COc1cc2c(c(C)c1O)[C@H]1COc3ccccc3[C@H]1O2`, the GI50 with NCI-H460 was 11.3 µM (inactive); in the assay with OVCAR-3, 21.9 µM (inactive); in the assay with HL-60 it was 2.94 µM (inactive); with SK-MEL-2, 3.16 µM (inactive); in the assay with CAKI-1, 9.04 µM (inactive); with HCT-15, 4.27 µM. Besides, the GI50 with SNB-19 was 1.49 µM (inactive); with HOP-62, 6.59 µM (inactive); in the assay with RPMI-8226, 13.8 µM (inactive); in the assay on HCC 2998, > 10 µM (inactive); in the assay on A498, 24.9 µM (inactive); in the assay on IGROV-1 it was 14.5 µM (inactive). For the same compound, the values for the GI50 in the assay with EKVX and with SNB-75 were 12.2 µM (inactive) and 3.95 µM (inactive), respectively.

On to `CC(=O)N(C(C)=O)C1=C2c3ccccc3N(S(=O)(=O)c3ccccc3)C2n2c(=O)n(-c3ccccc3)c(=O)n2C1` (stereo not drawn), for which the GI50 in the assay on NCI-H460 was 15.3 µM (inactive); with OVCAR-3, 25.5 µM (inactive); with HL-60, 23.3 µM (inactive); in the assay on SR it was 5.78 µM (inactive); in the assay on SK-MEL-2 it was 22.9 µM (inactive); in the assay with CAKI-1, 27.5 µM (inactive). Further, the GI50 was 30.4 µM with HCT-15; 30.3 µM (inactive) with SNB-19; 62.4 µM (inactive) in the assay on HOP-62; 12.7 µM (inactive) in the assay on RPMI-8226; 22.7 µM (inactive) with HCC 2998; 69.7 µM (inactive) with SN12C. Besides, the GI50 is 41.7 µM (inactive) in the assay with IGROV-1, 21.9 µM (inactive) in the assay on EKVX and 14 µM (inactive) in the assay with SNB-75.

With `COc1ccc(N2C(=O)C3C=CC(n4[nH]c(=O)n(Cc5ccccc5)c4=O)CC3C2=O)cc1` (stereo not drawn), the GI50 with NCI-H460 is > 100 µM (inactive); in the assay on OVCAR-3, > 100 µM (inactive); in the assay on HL-60 it was > 100 µM (inactive); with SK-MEL-2 it was > 100 µM (inactive); in the assay on CAKI-1 it was > 100 µM (inactive); in the assay on HCT-15, more than 100 µM. In addition, the GI50 is > 100 µM (inactive) with SNB-19; > 100 µM (inactive) in the assay on HOP-62; > 100 µM (inactive) with RPMI-8226; > 100 µM (inactive) with HCC 2998; > 100 µM (inactive) in the assay with SN12C; 86.7 µM (inactive) with A498. In addition, the GI50 in the assay with IGROV-1, in the assay with EKVX and with SNB-75 was > 100 µM (inactive) each time.

For `C/C(=N\O)C(CN1CCCCC1)C(c1ccccc1)c1c(O)c2ccccc2oc1=O` (stereo not drawn), the GI50 in the assay with OVCAR-3 was > 100 µM (inactive); in the assay with HL-60, > 10 µM (inactive); in the assay with SK-MEL-2, > 100 µM (inactive); with CAKI-1, > 100 µM (inactive); in the assay with SNB-19, > 100 µM (inactive); in the assay on HOP-62, > 100 µM (inactive). Besides, the GI50 in the assay on RPMI-8226, with HCC 2998, in the assay with SN12C, in the assay on A498, with IGROV-1 and with EKVX was > 100 µM (inactive) each time. Also, the GI50 in the assay with SNB-75 is > 100 µM (inactive).

As to `c1ccc(COc2cccc3cccnc23)cc1`, the GI50 in the assay on NCI-H460 was > 100 µM (inactive); in the assay with OVCAR-3, 63.5 µM (inactive); in the assay on HL-60, 19.9 µM (inactive); in the assay on SNB-19, > 100 µM (inactive); with HOP-62, > 100 µM (inactive); in the assay with RPMI-8226 it was > 100 µM (inactive). The GI50 in the assay on HCC 2998 is > 100 µM (inactive); in the assay with SN12C it was > 100 µM (inactive); with IGROV-1, 85.7 µM (inactive); with EKVX it was 83.9 µM (inactive); in the assay on SNB-75, 67.9 µM (inactive).

On to `Nc1ccc(/C=C/c2ccnc3ccccc23)cc1`, for which the GI50 in the assay on NCI-H460 was 16.1 µM (inactive); in the assay with OVCAR-3 it was 15 µM (inactive); with HL-60 it was 3.24 µM (inactive); in the assay with SR, 2.84 µM (inactive); in the assay on SK-MEL-2, 17.7 µM (inactive); with CAKI-1, 21.9 µM (inactive). The GI50 in the assay on HCT-15 was 21 µM; in the assay with SNB-19 it was 27.6 µM (inactive); in the assay with HOP-62, 15.3 µM (inactive); in the assay on RPMI-8226, 15.6 µM (inactive); in the assay with HCC 2998 it was 28.4 µM (inactive); in the assay on IGROV-1, 28.2 µM (inactive). For the same compound, in the assay on SNB-75, the GI50 is 15.9 µM (inactive).

As for `COC1OC(C)C(OCc2ccccc2)C(OS(=O)(=O)c2ccc(C)cc2)C1OS(=O)(=O)c1ccc(C)cc1` (stereo not drawn), the GI50 with NCI-H460 is > 100 µM (inactive); in the assay with OVCAR-3, > 100 µM (inactive); with HL-60 it was > 100 µM (inactive); in the assay with SR, > 100 µM (inactive); with SK-MEL-2 it was > 100 µM (inactive); in the assay on CAKI-1 it was 53.5 µM (inactive). In addition, the GI50 is more than 100 µM in the assay on HCT-15; > 100 µM (inactive) in the assay with SNB-19; > 100 µM (inactive) in the assay on HOP-62; > 100 µM (inactive) in the assay on RPMI-8226; > 100 µM (inactive) in the assay with HCC 2998; > 100 µM (inactive) in the assay with SN12C. The GI50 in the assay on IGROV-1, in the assay with EKVX and with SNB-75 was > 100 µM (inactive) each time.

With `CC(c1ccccc1)N1O[C@]12CC[C@@]1(C)C(CCCC13OCCO3)C2` (stereo partly drawn), the GI50 with NCI-H460 is 20.4 µM (inactive); in the assay on OVCAR-3 it was 18.7 µM (inactive); in the assay with SR, 16.7 µM (inactive); with CAKI-1, 22.2 µM (inactive); with HCT-15 it was 23.3 µM; in the assay with SNB-19 it was > 100 µM (inactive). For the same compound, the GI50 in the assay with HOP-62 was > 100 µM (inactive); in the assay on RPMI-8226, 35.7 µM (inactive); in the assay on HCC 2998, 75.5 µM (inactive); in the assay on SN12C it was 29 µM (inactive); with IGROV-1, 3.72 µM (inactive); in the assay with SNB-75, 22.1 µM (inactive).

On to `C#CCOCn1cnc2c(S)ncnc21`, for which the GI50 was > 100 µM (inactive) in the assay on NCI-H460; > 100 µM (inactive) with OVCAR-3; > 100 µM (inactive) in the assay on HL-60; > 100 µM (inactive) with SK-MEL-2; > 100 µM (inactive) with CAKI-1; more than 100 µM with HCT-15. For the same compound, the GI50 in the assay with SNB-19, with HOP-62, in the assay with RPMI-8226, in the assay with HCC 2998, in the assay on SN12C and with A498 was > 100 µM (inactive) throughout. Moreover, the figures for the GI50 in the assay with IGROV-1, with EKVX and in the assay on SNB-75 were > 100 µM (inactive), > 100 µM (inactive) and 13.6 µM (inactive), respectively.
